# Assay results taken from ChEMBL document CHEMBL1122775, “NMR spectroscopic studies of intermediary metabolites of cyclophosphamide. A comprehensive kinetic analysis of the interconversion of cis- and trans-4-hydroxycyclophosphamide with aldophosphamide and the concomitant partitioning of aldophosphamide between irreversible fragmentation and reversible …” (J Med Chem, 1984).
# Experiment: pKa was determined
# Format: physicochemical
row,Structure (SMILES),pKa
1,COc1ccc(N)cc1,5.3
2,CC(C)(C)N [TERT-BUTYLAMINE],10.8
